Results on 18 compounds are retold here after patent US4629733A, “Indolinones and pharmaceutical compositions containing same” (Dr. Karl Thomae GmbH, priority 1980, dated 1986).

A value given as a limit tells only on which side of the number the result lay.

For one series, the system named is conscious mice. Briefly: Determination of the prolongation of bleeding time. The format is in vivo. Particulars: Mus musculus, po, 1 h, 10 mg/kg orally, after one hour, versus control group. The procedure: To measure the bleeding time, 10 mg/kg of the test compound is administered orally to conscious mice. After one hour 0.5 mm of the tip of the tail of the mouse is cut off, and the droplets of blood are gently removed with filter paper every 30 seconds. The number of drops of blood give a measure of the bleeding time (5 animals/experiment). The values in the following table represent the prolongation as a percentage as compared to a control group: […]

For the next series, the system named is mice. Briefly: Acute toxicity. The format is in vivo. Particulars: observation time 14 days. The procedure: The acute toxicity of the substances to be tested was determined in groups of 5 mice each each after peroral administration of a dose of 250 mg/kg or 1000 mg/kg (observation time: 14 days).
For another series, the target named is phosphodiesterase (PDE). Nature of the series: PDE inhibition. It is filed as biochemical. Particulars: 10,000×g supernatant of human blood platelets, 1 μmol/liter 3H-cAMP, pH 7.4, 15 minutes at 37° C. The procedure:
cAMP is hydrolysed to AMP by phosphodiesterase (PDE) from various sources, including blood platelets. This hydrolysis is inhibited by PDE inhibitors according to the concentration.
The phosphodiesterase used is the 10,000×g supernatant of human blood platelets which have been frozen with water and thawed out again. An amount of 0.3 ml of a mixture which contains 0.1 mol/liter of tri-hydroxy-aminomethane (pH 7.4), 3 mmol/liter of magnesium chloride, 1 mmol/liter of AMP, 1 μmol/liter of ^3 H-cAMP (specific activity about 10 MBq/μmol), PDE as well as the substance to be tested, and water for the control is incubated for 15 minutes at 37° C. The incubation is stopped by the addition of 0.5 ml of zinc sulphate (0.266 mol/liter) and 0.5 ml of barium hydroxide (0.226 mol/liter), the precipitate is centrifuged, and the activity remaining in the supernatant of the unreacted ^3 H-cAMP is determined. From a comparison of the substance preparations and the control preparations, the concentration for a 50% inhibiting activity (IC50) of the respective substance was calculated.

As a reminder, the IC50 is the concentration needed to halve the response being measured. Lower therefore signals inhibition by little substance. In the case of `COc1cc2ccc([S+]([O-])CCCCOc3ccc4c(c3)C(C)(C)C(=O)N4)cc2cc1OC` (stereo not drawn) [L, 3,3-Dimethyl-5-[4-(6,7-dimethoxy-naphthyl-(2)-sulfinyl)butoxy]-indolinone-2], the change in vivo at 10 mg/kg in the series with conscious mice is 102%. Also, the “Acute toxicity per os (animals died)” value in the series on mice (1000 mg/kg peroral) is 0 out of 6. Besides, it took 240 nM to reach half-maximal inhibition at phosphodiesterase (PDE) (IC50).
In the same order, the values of `CC1(C)C(=O)Nc2ccc(OCCCC[S+]([O-])c3ccc(-c4ccccc4F)cc3)cc21` (stereo not drawn) [D, 3,3-Dimethyl-5-[4-(2'-fluoro-4-biphenylylsulfinyl)-butoxy]-indolinone-2] are more than 249%, 0 out of 6 and 27 nM.
As for `CC1(C)C(=O)Nc2ccc(OCCCCC[S+]([O-])c3ccc(C4CCCCC4)cc3)cc21` (stereo not drawn) [Q, 3,3-Dimethyl-5-[5-(4-cyclohexyl-phenyl-sulfinyl)-pentoxy]-indolinone-2], the change in vivo at 10 mg/kg in the series with conscious mice is more than 174%. For the same compound, the “Acute toxicity per os (animals died)” value with mice (1000 mg/kg peroral) was 0 out of 6. On phosphodiesterase (PDE), the half-maximal inhibitory concentration (IC50) was 380 nM.
As for `COc1ccc([S+]([O-])CCCCOc2ccc3c(c2)C(C)(C)C(=O)N3)cc1OC` (stereo not drawn) [E, 3,3-Dimethyl-5-[4-(3,4-dimethoxyphenylsulfinyl)-butoxy]-indolinone-2], the change in vivo at 10 mg/kg in the series on conscious mice was more than 198%. The “Acute toxicity per os (animals died)” value in the series with mice (1000 mg/kg peroral) is reported as 0 out of 6. On phosphodiesterase (PDE), this compound came in with an IC50 of 540 nM.
On the same counts, the results for `CC1(C)C(=O)Nc2ccc(OCCCC[S+]([O-])c3ccc(Cl)c(Cl)c3)cc21` (stereo not drawn) [B, 3,3-Dimethyl-5-[4-(3,4-dichlorophenylsulfinyl)-butoxy]-indolinone-2] are 59%, 0 out of 6 and 300 nM.
In the same order, the values of `CC1(C)C(=O)Nc2ccc(OCCCC[S+]([O-])c3ccc(Cl)cc3)cc21` (stereo not drawn) [P, 3,3-Dimethyl-5-[4-(4-chlorophenylsulfinyl)-butoxy]-indolinone-2] are 114%, 0 out of 6 and 360 nM.
On the same counts, the results for `CC1(C)C(=O)Nc2ccc(OCCCC[S+]([O-])c3cc(Br)c(N)c(Br)c3)cc21` (stereo not drawn) [N, 3,3-Dimethyl-5-[4-(3,5-dibromo-4-amino-phenyl-sulfinyl)butoxy]-indolinone-2] are more than 254%, 0 out of 6 and 110 nM.
For the compound `CC(C)(C)c1ccc([S+]([O-])CCCCOc2ccc3c(c2)C(C)(C)C(=O)N3)cc1` (stereo not drawn) [K, 3,3-Dimethyl-5-[4-(4-tert.butyl-phenyl-sulfinyl)-butoxy]-indolinone-2], in the series with conscious mice, the change in vivo at 10 mg/kg was more than 285%. The “Acute toxicity per os (animals died)” value in the series with mice (1000 mg/kg peroral) is reported as 0 out of 6. The IC50 on phosphodiesterase (PDE) worked out at 270 nM.
In the same order, the values of `CC1(C)C(=O)Nc2ccc(OCCCC[S+]([O-])c3ccc4ccccc4c3)cc21` (stereo not drawn) [O, 3,3-Dimethyl-5-[4-(naphthyl-(2)-sulfinyl)-butoxy]-indolinone-2] are 127%, 0 out of 6 and 110 nM.
Regarding `CC(C)(C)c1ccc(S(=O)(=O)CCCCOc2ccc3c(c2)C(C)(C)C(=O)N3)cc1` [R, 3,3-Dimethyl-5-[4-(4-tert.butyl-phenyl-sulfonyl)-butoxy]-indolinone-2], the change in vivo at 10 mg/kg in the series with conscious mice is more than 242%. For the same compound, the “Acute toxicity per os (animals died)” value with mice (1000 mg/kg peroral) is 0 out of 6. The compound also yielded a half-maximal inhibitory concentration (IC50) on phosphodiesterase (PDE) of 240 nM.
For `CC1(C)C(=O)Nc2ccc(OCCCC[S+]([O-])c3ccccc3)cc21` (stereo not drawn) [A, 3,3-Dimethyl-5-(4-phenylsulfinyl-butoxy)-indolinone-2], the “Acute toxicity per os (animals died)” value in the series on mice (250 mg/kg peroral) is reported as 0 out of 5. Besides, half-maximal inhibition on phosphodiesterase (PDE) (IC50) required 2500 nM.
With `CC(C)(C)c1cc([S+]([O-])CCCCOc2ccc3c(c2)C(C)(C)C(=O)N3)cc(C(C)(C)C)c1O` (stereo not drawn) [G, 3,3-Dimethyl-5-[4-(3,5-di-tert.butyl-4-hydroxy-phenylsulfinyl)-butoxy]-indolinone-2], in the series on conscious mice, the change in vivo at 10 mg/kg stood at 154%. Moreover, the “Acute toxicity per os (animals died)” value in the series on mice (1000 mg/kg peroral) is 0 out of 6. On phosphodiesterase (PDE), this compound yielded an IC50 of 70 nM.
As to `CC1(C)C(=O)Nc2ccc(OCCCC[S+]([O-])c3ccc(C4CCCCC4)cc3)cc21` (stereo not drawn) [S, 3,3-Dimethyl-5-[4-(4-cyclohexyl-phenyl-sulfinyl)-butoxy]-indolinone-2], in the series on conscious mice, the change in vivo at 10 mg/kg came to 104%. Moreover, the “Acute toxicity per os (animals died)” value in the series on mice (1000 mg/kg peroral) is 0 out of 6. The same compound displayed a concentration for half-maximal inhibition (IC50) at phosphodiesterase (PDE) of 58 nM.
In the same order, the values of `COc1cc2ccc(S(=O)(=O)CCCCOc3ccc4c(c3)C(C)(C)C(=O)N4)cc2cc1OC` [F, 3,3-Dimethyl-5-[4-(6,7-dimethoxy-naphthyl-(2)-sulfonyl)butoxy]-indolinone-2] are more than 232%, 0 out of 6 and 240 nM.
Take `CC1(C)C(=O)Nc2ccc(OCCCCSc3ccc(C4CCCCC4)cc3)cc21` [C, 3,3-Dimethyl-5-[4-(4-cyclohexylphenylmercapto)-butoxy]-indolinone-2]: in the series on mice (1000 mg/kg peroral), the “Acute toxicity per os (animals died)” value is given as 0 out of 6. Also, the IC50 at phosphodiesterase (PDE) amounted to 2500 nM.
As for `CC(C)(C)c1cc(S(=O)(=O)CCCCOc2ccc3c(c2)C(C)(C)C(=O)N3)cc(C(C)(C)C)c1O` [H, 3,3-Dimethyl-5-[4-(3,5-di-tert.butyl-4-hydroxy-phenylsulfonyl)-butoxy]-indolinone-2], in the series with conscious mice, the change in vivo at 10 mg/kg stood at 149%. In addition, in the series on mice (1000 mg/kg peroral), the “Acute toxicity per os (animals died)” value is reported as 0 out of 6. Also, the IC50 at phosphodiesterase (PDE) was determined as 59 nM.
On the same counts, the results for `COc1ccc([S+]([O-])CCCCOc2ccc3c(c2)C(C)(C)C(=O)N3)cc1` (stereo not drawn) [I, 3,3-Dimethyl-5-[4-(4-methoxyphenyl-sulfinyl)-butoxy]-indolinone-2] are more than 214%, 0 out of 6 and 500 nM.
`CC1(C)C(=O)Nc2ccc(OCCCCSc3cc(Cl)c(O)c(Cl)c3)cc21` [M, 3,3-Dimethyl-5-[4-(3,5-dichloro-4-hydroxy-phenyl-mercapto)-butoxy]-indolinone-2] registered a change in vivo at 10 mg/kg with conscious mice of 140%. The “Acute toxicity per os (animals died)” value with mice (1000 mg/kg peroral) is reported as 0 out of 6.
